Data published in PubChem BioAssay (NCI).
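Compound exposure: 48 hours, 5 concentrations, 96-well plates. GI50: concentration for 50% inhibition of growth. TGI marks complete inhibition of growth.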

Columns and labels:
Experiment in all cases: growth of human tumour cells (NCI), 48 h
[1] = test system: HCC-2998 colon
[2] = test system: EKVX NSCLC
[3] = test system: SK-MEL-2 melanoma
[4] = test system: HOP-92 NSCLC
[5] = test system: SK-MEL-5 melanoma
[6] = test system: NCI/ADR-RES ovarian
[7] = test system: 786-0 renal
[8] = test system: HCT-116 colon
[9] = test system: UACC-257 melanoma
[10] = test system: BT-549 breast
[11] = test system: SK-MEL-28 melanoma
[12] = test system: SR leukemia
[13] = test system: OVCAR-4 ovarian
[14] = test system: M14 melanoma
[15] = test system: SN12C renal
[16] = test system: UO-31 renal
[17] = test system: HL-60(TB) leukemia
[18] = test system: K-562 leukemia
[19] = test system: OVCAR-3 ovarian
[20] = test system: UACC-62 melanoma
[21] = test system: SF-295 CNS
[22] = test system: SW-620 colon
[23] = test system: SNB-75 CNS
[24] = test system: MDA-MB-435
[25] = test system: RPMI-8226 leukemia
[26] = test system: MOLT-4 leukemia
[27] = test system: HS 578T breast
[28] = test system: U251 CNS
[29] = test system: MALME-3M melanoma
[30] = test system: MCF7 breast
[31] = test system: COLO 205 colon
[32] = test system: ACHN renal
[33] = test system: HT29 colon
[34] = test system: SK-OV-3 ovarian
[35] = test system: HOP-62 NSCLC
[36] = test system: CCRF-CEM leukemia
[37] = test system: NCI-H226 lung
[38] = test system: RXF 393 renal
[39] = test system: IGROV1 ovarian
[40] = test system: NCI-H460 lung
[41] = test system: LOX IMVI melanoma
[42] = test system: TK-10 renal
[43] = test system: SF-539 CNS
[44] = test system: MDA-MB-231 breast
[45] = test system: DU-145 prostate
[46] = test system: A498 renal
[47] = test system: NCI-H522 lung
[48] = test system: OVCAR-8 ovarian
[49] = test system: KM12 colon
[50] = test system: PC-3 prostate
[51] = test system: SNB-19 CNS
[52] = test system: SF-268 CNS
[53] = test system: NCI-H23 lung
[54] = test system: OVCAR-5 ovarian
[55] = test system: HCT-15 colon
[56] = test system: A549 NSCLC
[57] = test system: T-47D breast
[58] = test system: CAKI-1 renal

[C](#Cc1ccccc1)[Hg][C]#Cc1ccccc1
GI50 [1]: 47.7 µM | TGI [1]: 82.6 µM | GI50 [2]: > 100 µM | TGI [2]: > 100 µM | GI50 [3]: 37.7 µM | TGI [3]: > 100 µM | GI50 [4]: 21.1 µM | TGI [4]: 47.5 µM | GI50 [5]: 53.3 µM | TGI [5]: > 100 µM | GI50 [6]: > 100 µM | TGI [6]: > 100 µM | GI50 [7]: 30.6 µM | TGI [7]: > 100 µM | GI50 [8]: 72.5 µM | TGI [8]: > 100 µM | GI50 [9]: 22.5 µM | TGI [9]: 41.6 µM | GI50 [10]: 22.1 µM | TGI [10]: 43.2 µM | GI50 [11]: 14.7 µM | TGI [11]: 36.2 µM | GI50 [12]: 23.5 µM | TGI [12]: > 100 µM | GI50 [13]: 18.6 µM | TGI [13]: 45.8 µM | GI50 [14]: 75.1 µM | TGI [14]: > 100 µM | GI50 [15]: 30.1 µM | TGI [15]: 73.3 µM | GI50 [16]: 32.5 µM | TGI [16]: 74.6 µM | GI50 [17]: 27.7 µM | TGI [17]: > 100 µM | GI50 [18]: 13.2 µM | TGI [18]: > 100 µM | GI50 [19]: 39.8 µM | TGI [19]: > 100 µM | GI50 [20]: 24.3 µM | TGI [20]: 53.7 µM | GI50 [21]: > 100 µM | TGI [21]: > 100 µM | GI50 [22]: 35.5 µM | TGI [22]: > 100 µM | GI50 [23]: > 100 µM | TGI [23]: > 100 µM | GI50 [24]: 43.2 µM | TGI [24]: > 100 µM | GI50 [25]: 13.1 µM | TGI [25]: > 100 µM | GI50 [26]: 34.3 µM | TGI [26]: > 100 µM | GI50 [27]: > 100 µM | TGI [27]: > 100 µM | GI50 [28]: 22.4 µM | TGI [28]: 43.9 µM | GI50 [29]: 27.9 µM | TGI [29]: 54.7 µM | GI50 [30]: 10.4 µM | TGI [30]: 56.9 µM | GI50 [31]: 22.2 µM | TGI [31]: 48 µM | GI50 [32]: 21.1 µM | TGI [32]: 41.6 µM | GI50 [33]: 14.1 µM | TGI [33]: 40.9 µM | GI50 [34]: > 100 µM | TGI [34]: > 100 µM | GI50 [35]: > 100 µM | TGI [35]: > 100 µM | GI50 [36]: 8.93 µM | TGI [36]: > 100 µM | GI50 [37]: 28.1 µM | TGI [37]: 63.2 µM | GI50 [38]: 16.5 µM | TGI [38]: 34.9 µM | GI50 [39]: 29.7 µM | TGI [39]: 97.5 µM | GI50 [40]: 86.2 µM | TGI [40]: > 100 µM | GI50 [41]: 25.4 µM | TGI [41]: 63.7 µM | GI50 [42]: 23.8 µM | TGI [42]: 50.7 µM | GI50 [43]: 53.1 µM | TGI [43]: > 100 µM | GI50 [44]: 20.8 µM | TGI [44]: 44.8 µM | GI50 [45]: 48.2 µM | TGI [45]: > 100 µM | GI50 [46]: > 100 µM | TGI [46]: > 100 µM | GI50 [47]: 19.4 µM | TGI [47]: 46.1 µM | GI50 [48]: 26.6 µM | TGI [48]: 60.9 µM | GI50 [49]: 94.1 µM | TGI [49]: > 100 µM | GI50 [50]: 30.6 µM | TGI [50]: 87.5 µM | GI50 [51]: 47.3 µM | TGI [51]: > 100 µM | GI50 [52]: 18.7 µM | TGI [52]: 38 µM | GI50 [53]: 37.8 µM | TGI [53]: > 100 µM | GI50 [54]: 63.1 µM | TGI [54]: > 100 µM | GI50 [55]: 21.1 µM | TGI [55]: 43.7 µM | GI50 [56]: 50.1 µM | TGI [56]: > 100 µM | GI50 [57]: 28.8 µM | TGI [57]: 79.1 µM | GI50 [58]: 20 µM | TGI [58]: 41.7 µM
